Experimental data: patent US8574563B2 (Bristol-Myers Squibb Company, priority 2006, dated 2013)
Where two headings read alike, the source gives them in different places.

Test system: HCV 1b-377-neo replicon cells
Assay: HCV replicon assay, HCV 1b-377-neo replicon cells (1b FRET)
Assay type: cell-based, Hepatitis C virus genotype 1b
Conditions: HCV 1b-377-neo replicon cells, HCV 1b genotype, read-out: EC50 range against HCV 1b (Table 2, Range)
Protocol: An HCV Replion assay was utilized in the present disclosure, and was prepared, conducted and validated as described in commonly owned PCT/US2006/022197 and in O'Boyle et. al. Antimicrob Agents Chemother. 2005 April; 49(4):1346-53.
HCV 1b-377-neo replicon cells were used to test the currently described compound series as well as cells resistant to compound A due to a Y2065H mutation in NS5A (described in application PCT/US2006/022197). The compounds tested were determined to have more than 10-fold less inhibitory activity on cells resistant to compound A than wild-type cells indicating a related mechanism of action between the two compound series. Thus, the compounds of the present disclosure can be effective to inhibit the function of the HCV NS5A protein and are understood to be as effective in combinations as previously described in application PCT/US2006/022197 and commonly owned WO/04014852. Further, the compounds of the present disclosure can be effective against the HCV 1b genotype. It should also be understood that the compounds of the present disclosure can inhibit multiple genotypes of HCV. […] In one embodiment compounds of the present disclosure are active against the 1a, 1b, 2a, 2b, 3a, 4a, and 5a genotypes.

Compound | EC50 (Hepatitis C virus) [nM] | EC50 [nM]
COC(=O)N[C@H](C(=O)N1CCCC1c1ncc(-c2ccc(-c3ccc(-c4cnc([C@]5(C)CCCN5C(=O)[C@@H](NC(=O)OC)[C@@H](C)OC)[nH]4)cc3)cc2)[nH]1)[C@@H](C)OC (stereo partly shown) | 0.001 to 0.999 | –
COC(=O)N[C@H](C(=O)N1CCC[C@H]1c1ncc(-c2ccc(-c3ccc(-c4cnc([C@@H]5CCCN5C(=O)[C@@H](Nc5n[nH]c(N)n5)C(C)C)[nH]4)cc3)cc2)[nH]1)C(C)C | 0.001 to 0.999 | –
CCN(CC)[C@@H](C(=O)N1CCC[C@H]1c1ncc(-c2ccc(-c3ccc(-c4cnc([C@@H]5CC(F)(F)CN5C(=O)[C@@H](c5ccccc5)N(CC)CC)[nH]4)cc3)cc2)[nH]1)c1ccccc1 (mixture of isomers) [OL-13, rac-(1R)-2-((2S)-2-(4-(4′-(2-((2S)-1-((2R)-2-(diethylamino)-2-phenylacetyl)-4,4-difluoro-2-pyrrolidinyl)-1H-imidazol-4-yl)-4-biphenylyl)-1H-imidazol-2-yl)-1-pyrrolidinyl)-N,N-diethyl-2-oxo-1-phenylethanamine] | 0.001 to 0.999 | –
CN(C)C(C(=O)N1CCC[C@H]1c1nc(-c2ccc(-c3ccc(-c4cnc([C@@H]5CC6CCCCC6N5C(=O)[C@@H](c5ccccc5)N(C)C)[nH]4)cc3)cc2)c[nH]1)c1ccccc1 (relative stereo) [Example F7, rel-(1R)-2-((2S)-2-(4-(4′-(2-((2S)-1-((2R)-2-(dimethylamino)-2-phenylacetyl)octahydro-1H-indol-2-yl)-1H-imidazol-5-yl)-4-biphenylyl)-1H-imidazol-2-yl)-1-pyrrolidinyl)-N,N-dimethyl-2-oxo-1-phenylethanamine] | 0.001 to 0.999 | –
COC(=O)N[C@@H](C(=O)N1CCC[C@H]1c1nc(-c2ccc(-c3ccc(-c4cnc([C@@H]5CC6CCCCC6N5C(=O)[C@H](NC(=O)OC)c5ccccc5)[nH]4)cc3)cc2)c[nH]1)c1ccccc1 (relative stereo) [Example F8, methyl rel-((1R)-2-((2S)-2-(4-(4′-(2-((2S)-1-((2R)-2-((methoxycarbonyl)amino)-2-phenylacetyl)octahydro-1H-indol-2-yl)-1H-imidazol-5-yl)-4-biphenylyl)-1H-imidazol-2-yl)-1-pyrrolidinyl)-2-oxo-1-phenylethyl)carbamate] | 0.001 to 0.999 | –
CN(C)[C@@H](C(=O)N1CCC[C@H]1c1nc(-c2ccc(-c3ccc(-c4cn(C)c([C@@H]5CCCN5C(=O)[C@@H](c5ccccc5)N(C)C)n4)cc3)cc2)cn1C)c1ccccc1 (single isomer, unassigned) [151 isomer 1] | – | 1 to 99
CN(C)[C@@H](C(=O)N1CCC[C@H]1c1nc(-c2ccc(-c3ccc(-c4cn(C)c([C@@H]5CCCN5C(=O)[C@@H](c5ccccc5)N(C)C)n4)cc3)cc2)cn1C)c1ccccc1 (single isomer, unassigned) [151 isomer 2] | – | 100 to 999
O=C(OCc1ccccc1)N1CCN(C(C(=O)N2CCC[C@H]2c2ncc(-c3ccc(-c4ccc(-c5c[nH]c([C@@H]6CCCN6C(=O)[C@H]6CCCO6)n5)cc4)cc3)[nH]2)c2ccccc2)CC1 (single isomer, unassigned) [Example 103-5] | – | 0.001 to 0.999
O=C(OCc1ccccc1)N1CCN(C(C(=O)N2CCC[C@H]2c2ncc(-c3ccc(-c4ccc(-c5c[nH]c([C@@H]6CCCN6C(=O)[C@H]6CCCO6)n5)cc4)cc3)[nH]2)c2ccccc2)CC1 (single isomer, unassigned) [Example 103-6] | – | 1 to 99
CC(=O)OC(C(=O)N1CCC[C@H]1c1ncc(-c2ccc(-c3ccc(-c4cnc([C@@H]5CCCN5C(=O)[C@@H](c5ccccc5)N5CCCCC5)[nH]4)cc3)cc2)[nH]1)c1ccccc1 (stereo in doubt) [Example 107-1, (1S)-2-oxo-1-phenyl-2-((2S)-2-(5-(4′-(2-((2S)-1-((2R)-2-phenyl-2-(1-piperidinyl)acetyl)-2-pyrrolidinyl)-1H-imidazol-5-yl)-4-biphenylyl)-1H-imidazol-2-yl)-1-pyrrolidinyl) ethyl acetate] | 0.001 to 0.999 | –
CC(=O)OC(C(=O)N1CCC[C@H]1c1ncc(-c2ccc(-c3ccc(-c4cnc([C@@H]5CCCN5C(=O)[C@@H](c5ccccc5)N5CCCCC5)[nH]4)cc3)cc2)[nH]1)c1ccccc1 (stereo in doubt) [Example 107-21, (1R)-2-oxo-1-phenyl-2-((2S)-2-(5-(4′-(2-((2S)-1-((2R)-2-phenyl-2-(1-piperidinyl)acetyl)-2-pyrrolidinyl)-1H-imidazol-5-yl)-4-biphenylyl)-1H-imidazol-2-yl)-1-pyrrolidinyl)ethyl acetate] | 0.001 to 0.999 | –
CC(=O)OC(C(=O)N1CCC[C@H]1c1ncc(-c2ccc(-c3ccc(-c4cnc([C@@H]5CCCN5C(=O)[C@@H](c5ccccc5F)N(C)C)[nH]4)cc3)cc2)[nH]1)c1ccccc1 (stereo in doubt) [Example 107-33, (1R)-2-((2S)-2-(5-(4′-(2-((2S)-1-((2R)-2-(dimethylamino)-2-(2-fluorophenyl)acetyl)-2-pyrrolidinyl)-1H-imidazol-5-yl)-4-biphenylyl)-1H-imidazol-2-yl)-1-pyrrolidinyl)-2-oxo-1-phenylethyl acetate] | 0.001 to 0.999 | –
COC(=O)NC(C(=O)N1CCC[C@H]1c1ncc(-c2ccc(-c3ccc(-c4cnc([C@@H]5CCCN5C(=O)[C@@H](NC(=O)OC)C(C)C)[nH]4)cc3)cc2F)[nH]1)[C@@H](C)OC (stereo in doubt) [Example D42, methyl ((1S,2R)-1-(((2S)-2-(5-(3-fluoro-4′-(2-((2S)-1-(N-(methoxycarbonyl)-L-valyl)-2-pyrrolidinyl)-1H-imidazol-5-yl)-4-biphenylyl)-1H-imidazol-2-yl)-1-pyrrolidinyl)carbonyl)-2-methoxypropyl) carbamate] | 0.001 to 0.999 | –
COC(=O)N[C@H](C(=O)N1CCC[C@H]1c1ncc(-c2ccc(-c3ccc(-c4cnc([C@@H]5CCCN5C(=O)[C@@H](NC(=O)OC)C(C)OC)[nH]4)c(F)c3)cc2F)[nH]1)C(C)C (stereo in doubt) [Example D56, methyl ((1S,2R)-1-(((2S)-2-(5-(3,3′-difluoro-4′-(2-((2S)-1-(N-(methoxycarbonyl)-L-valyl)-2-pyrrolidinyl)-1H-imidazol-5-yl)-4-biphenylyl)-1H-imidazol-2-yl)-1-pyrrolidinyl)carbonyl)-2-methoxypropyl) carbamate] | 0.001 to 0.999 | –
COC(=O)N[C@H](C(=O)N1CCC[C@H]1c1ncc(-c2ccc(-c3ccc(-c4nc([C@@H]5CCCN5C(=O)[C@@H](NC(=O)OC)[C@@H](C)OC)[nH]c4C)cc3)cc2)[nH]1)C(C)OC (stereo in doubt) [Example E5f, methyl ((1S,2R)-2-methoxy-1-(((2S)-2-(4-(4′-(2-((2S)-1-(N-(methoxycarbonyl)-O-methyl-L-threonyl)-2-pyrrolidinyl)-4-methyl-1H-imidazol-5-yl)-4-biphenylyl)-1H-imidazol-2-yl)-1-pyrrolidinyl)carbonyl)propyl)carbamate] | 0.001 to 0.999 | –
COC(=O)N[C@H](C(=O)N1CCC[C@H]1c1nc(C)c(-c2ccc(-c3ccc(-c4nc([C@@H]5CCCN5C(=O)[C@@H](NC(=O)OC)[C@@H](C)OC)[nH]c4C)cc3)cc2)[nH]1)C(C)OC (stereo in doubt) [Example E5m, methyl ((1S,2R)-2-methoxy-1-(((2S)-2-(4-(4′-(2-((2S)-1-(N-(methoxycarbonyl)-O-methyl-L-threonyl)-2-pyrrolidinyl)-5-methyl-1H-imidazol-4-yl)-4-biphenylyl)-5-methyl-1H-imidazol-2-yl)-1-pyrrolidinyl)carbonyl)propyl)carbamate] | 0.001 to 0.999 | –
